What is called Kd is the concentration at which binding is half-saturated.

Calls of active or inactive are those of the source. The rule behind the calls is not given here. Where only a bound is given, the exact number is not on record here.

For this experiment, the target named is Chaperone protein DnaK (Escherichia coli (strain K12)) (UniProt P0A6Y8). Kind of experiment: E. coli DnaK SBD ligand binding – biophysical, NMR, chaperone (AID 1033). The settings on record: Purified DnaK SBD.
Sequence of Chaperone protein DnaK (Escherichia coli (strain K12)) (P0A6Y8 whole entry, looked up): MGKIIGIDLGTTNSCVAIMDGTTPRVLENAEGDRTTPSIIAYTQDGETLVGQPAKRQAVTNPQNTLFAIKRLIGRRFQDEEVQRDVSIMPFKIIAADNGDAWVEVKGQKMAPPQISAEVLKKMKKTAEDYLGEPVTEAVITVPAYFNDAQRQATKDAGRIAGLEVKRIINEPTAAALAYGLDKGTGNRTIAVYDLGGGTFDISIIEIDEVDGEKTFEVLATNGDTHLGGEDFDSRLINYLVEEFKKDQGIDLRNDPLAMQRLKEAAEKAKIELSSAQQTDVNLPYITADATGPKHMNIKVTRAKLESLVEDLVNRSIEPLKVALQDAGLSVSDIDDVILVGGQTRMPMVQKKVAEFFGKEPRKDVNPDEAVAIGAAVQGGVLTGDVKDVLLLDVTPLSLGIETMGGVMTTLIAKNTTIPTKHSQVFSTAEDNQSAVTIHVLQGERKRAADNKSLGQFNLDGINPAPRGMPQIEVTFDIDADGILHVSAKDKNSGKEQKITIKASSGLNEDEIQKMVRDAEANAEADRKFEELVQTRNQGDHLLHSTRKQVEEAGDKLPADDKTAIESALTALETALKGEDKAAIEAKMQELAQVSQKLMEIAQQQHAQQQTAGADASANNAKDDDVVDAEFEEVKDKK
For the compound `CS(=O)(=O)NC1CCN(Cc2ccccc2)CC1`, the Kd was > 4 mM (inactive).
As for `NC(=O)C(=O)Nc1nc(-c2ccccc2)cs1`, the figure is > 4 mM (inactive); as for `NC(=O)CCn1ncc2ccccc21`, > 4 mM (inactive); as for `CC(C)c1c(O)ccc2c1CCC1C(C)(C)CCC[C@]21C` (stereo partly drawn), > 4 mM (inactive).
The value for `Cc1cc(C)n2nc(SCC(=O)c3ccccc3)nc2n1` was > 4 mM (inactive); that for `O=C(O)CCC(=O)c1c[nH]c2ccccc12` was > 4 mM (inactive).
As for `CC1CN(C2=NCCN2)CC(C)O1` (stereo not drawn), the figure is > 4 mM (inactive); as for `COc1ccc2c(c1)OCC(Cc1ccc(OC)c(O)c1)C2=O` (stereo not drawn), > 4 mM (inactive); as for `CC1CCN(C(=O)c2cc3ccccc3o2)CC1`, > 4 mM (inactive).
On to `Cc1cc(C(=O)NCc2cccnc2)no1`, for which the Kd is > 4 mM (inactive).
The value for `COc1ccc2c(c1)O[C@@H]1COc3cc(OC)c(OC)cc3[C@@H]1C2=O` was > 4 mM (inactive); that for `COc1cc(O)c(C(C)=O)c(OC)c1` was > 4 mM (inactive); that for `CCN1CCc2c(sc(N)c2C#N)C1` was > 4 mM (inactive).
The value for `NC(=O)c1ccc(NC(=O)C2CC2)cc1` was > 4 mM (inactive); that for `NC(=O)CSc1nnc2ccc(-c3ccccn3)nn12` was > 4 mM (inactive).
The value for `COc1ccc(C[C@H]2NC[C@H](O)[C@H]2OC(C)=O)cc1` was > 4 mM (inactive); that for `O=C(O)CNC(=O)c1ccccc1Cl` was > 4 mM (inactive).
As for `Cc1ccc(-c2nnn(CC(=O)O)n2)cc1`, the Kd is > 4 mM (inactive).
Regarding `CC(=O)Nc1ccc(NC(C)=O)cc1`, the Kd was > 4 mM (inactive).
`O=C(CCc1ccc(O)cc1)c1c(O)cc(O)cc1O[C@@H]1O[C@H](CO)[C@@H](O)[C@H](O)[C@H]1O`: the Kd is > 4 mM (inactive).
The value for `Cc1cc(N)on1` was > 4 mM (inactive).
For `Cn1nnc2cc(C(=O)NC3=NCCS3)ccc21`, the Kd is > 4 mM (inactive).
As for `O=C(O)c1cccc(-n2cccc2)c1`, the figure is > 4 mM (inactive).
The value for `Cc1cc(C)nc(/N=C(/N)N2CCC(C(N)=O)CC2)n1` was > 4 mM (inactive); that for `O=C(O)C1CSC(c2cc3ccccc3nc2Cl)N1` (stereo not drawn) was > 4 mM (inactive); that for `CN1CC(=O)Nc2ccc([N+](=O)[O-])cc2C1=O` was > 4 mM (inactive).
As to `Brc1cccc(-c2nnco2)c1`, the Kd is > 4 mM (inactive).
As for `CC(C)=CCc1c(O)cc2occ(-c3ccc4c(c3)OCO4)c(=O)c2c1O`, the figure is > 4 mM (inactive); as for `COC(=O)C[C@@H]1C2(C)C(=O)[C@@H](CC3C2CC[C@]2(C)C3CC(=O)O[C@H]2c2ccoc2)[C@H](OC(C)=O)C1(C)C` (stereo partly drawn), > 4 mM (inactive).
The value for `c1ccc2[nH]c(-c3cscn3)nc2c1` was > 4 mM (inactive); that for `CC1CC[C@]2(NC1)O[C@H]1CC3C4CC[C@H]5C[C@@H](O)CC[C@]5(C)C4CC[C@]3(C)[C@H]1[C@@H]2C` (stereo partly drawn) was > 4 mM (inactive); that for `O=C(Cc1ccccc1)Nc1c[nH]c(=O)[nH]c1=O` was > 4 mM (inactive).
As for `C[C@H]1C[C@@H](O)[C@]2(O)[C@@]13CC(=O)OC[C@@]2(C)[C@](C)(O)C(=O)C3`, the figure is > 4 mM (inactive); as for `CC(=O)Nc1cccc(-c2n[nH]c(=S)n2C)c1`, > 4 mM (inactive).
For `Cn1c(NCC(=O)O)nc2c1c(=O)[nH]c(=O)n2C`, the Kd was > 4 mM (inactive).
The value for `Nc1nc2c3ccccc3nc(Cc3ccccc3)n2n1` was > 4 mM (inactive).
The value for `N=Cc1c(O)n(-c2cccc(Cl)c2)c(=O)[nH]c1=O` was > 4 mM (inactive); that for `O=C(CC1CCCCC1)N1CCN(c2ccccn2)CC1` was > 4 mM (inactive).
The value for `Cc1ccc(NC(=O)N2CCC(C(N)=O)CC2)cc1` was > 4 mM (inactive); that for `O=C1CCC(C(=O)NCc2ccc(Cl)cc2)N1` (stereo not drawn) was > 4 mM (inactive); that for `O=S(=O)(O)c1cc[n+]([O-])cc1` was > 4 mM (inactive).
On to `COC(=O)c1ccccc1N(C)S(C)(=O)=O`, for which the Kd was > 4 mM (inactive).
As for `c1ccc2nc3c(nc2c1)CCc1nonc1-3`, the figure is > 4 mM (inactive); as for `CC(C)=CC(=O)Nc1ccccc1C(N)=O`, > 4 mM (inactive).
As for `N#Cc1cnn(Cc2ccc(Cl)cc2)c1N`, the figure is > 4 mM (inactive); as for `Cc1ccc(-c2nnc3sc(-c4ccncc4)nn23)cc1`, > 4 mM (inactive).
As for `CSc1nnc2[nH]c(=O)cc(N)n12`, the Kd is > 4 mM (inactive).
As for `Nc1ncnc(NCCOCCO)c1[N+](=O)[O-]`, the figure is > 4 mM (inactive).
The value for `CN(C)C(=O)N1CCN(C(=O)c2ccco2)CC1` was > 4 mM (inactive); that for `NC1=NC(=O)/C(=C/c2cccs2)S1` was > 4 mM (inactive).
The value for `CN1CC(=O)N=C1N` was > 4 mM (inactive).
For the compound `CC1(C)C2C[C@@H](O)[C@]3(C)C(CC[C@@]4(C)[C@H](c5ccoc5)OC(=O)[C@H]5O[C@]543)[C@@]2(C)[C@@H](O)C[C@H]1O` (stereo partly drawn), the Kd was > 4 mM (inactive).
As for `Nc1nc2ncc(CNc3ccc(C(=O)N[C@@H](CCC(=O)O)C(=O)O)cc3)nc2c(=O)[nH]1`, the figure is > 4 mM (inactive); as for `CC(C)Oc1ccc(C2CC(=O)NNC2=O)cc1` (stereo not drawn), > 4 mM (inactive).
As for `C=C1CCC(=O)C(C)CCC2C1CC2(C)C` (stereo not drawn), the figure is > 4 mM (inactive); as for `O=S(=O)(CCN1CCCC1)c1ccccc1`, > 4 mM (inactive); as for `NC(=O)c1ccc(SCC(=O)O)c([N+](=O)[O-])c1`, > 4 mM (inactive).
The value for `OC1CCN(Cc2ccc[nH]2)CC1` was > 4 mM (inactive); that for `N#Cc1cc2ccccc2nc1N` was > 4 mM (inactive).
With `CC(NC(=O)C1CCCCC1)C(=O)NC1=NCCS1` (stereo not drawn), the Kd is > 4 mM (inactive).
As for `CN1C2C[C@H](OC(=O)[C@H](CO)c3ccccc3)C[C@H]1[C@@H](O)C2`, the figure is > 4 mM (inactive); as for `O=C(NCc1cccnc1)c1ccccn1`, > 4 mM (inactive); as for `CNC(=S)Nc1ncn(Cc2cccc(F)c2)n1`, > 4 mM (inactive).
The value for `Cc1nn2c(=O)nc3sc4c(c3c2[nH]c1=O)CCCC4` was > 4 mM (inactive); that for `CNC(=O)c1cc(C)c(-c2ccccc2)s1` was > 4 mM (inactive).
The value for `CC(=O)NC1=NN(c2ccccc2)C(=O)C1` was > 4 mM (inactive); that for `COC(=O)c1c(OC)cc2c(c1C)Oc1c(Cl)c(OC(C)=O)c(Cl)c(C)c1C(=O)O2` was > 4 mM (inactive); that for `CC[C@H]1CN2CCc3cc(OC)c(OC)cc3C2C[C@@H]1CC1NCCc2cc(OC)c(OC)cc21` (stereo partly drawn) was > 4 mM (inactive).
On to `COC1C(O)C(O[C@H]2CC[C@]3(C=O)C4C(CC[C@]3(O)C2)[C@@]2(O)CC[C@H](C3=CC(=O)OC3)[C@@]2(C)C[C@H]4OC(C)=O)OC(C)C1OC(C)=O` (stereo partly drawn), for which the Kd was > 4 mM (inactive).
The value for `CCn1cnc2scc(-c3ccccc3)c2c1=O` was > 4 mM (inactive).
The value for `Cc1nn(-c2ccccc2)c(Cl)c1C(N)=O` was > 4 mM (inactive); that for `NC(=O)c1cc2c(n(-c3ccccc3)c1=O)CCCC2=O` was > 4 mM (inactive); that for `NCc1cccc(-n2cccc2)c1` was > 4 mM (inactive).
As for `Cc1occc1C(=O)Nc1cc(C(C)(C)C)on1`, the figure is > 4 mM (inactive); as for `COc1cc([C@@H]2c3cc4c(cc3[C@H](OC(C)=O)[C@H]3COC(=O)[C@H]23)OCO4)cc(OC)c1OC`, > 4 mM (inactive); as for `Cc1ccsc1/C=c1\sc2ncnn2c1=O`, > 4 mM (inactive).
As to `O=C1NC(=O)C(Cc2ccccc2)C(=O)N1`, the Kd is > 4 mM (inactive).
As for `O=C(O)c1ccc(-c2ccccn2)s1`, the figure is > 4 mM (inactive); as for `CN1C(=O)N(C)C2NC(=O)NC21` (stereo not drawn), > 4 mM (inactive).
`CC(=O)Nc1sc(C)c(C)c1C(N)=O`: the Kd was > 4 mM (inactive).
With `C/C=C(\C)C(=O)O[C@@H]1c2c(ccc3ccc(=O)oc23)OC(C)(C)[C@@H]1OC(C)=O`, the Kd was > 4 mM (inactive).
The value for `COc1ccc(C(C)=O)c(OC)c1` was > 4 mM (inactive); that for `O=S1(=O)CCC(NC(=S)N2CCCCC2)C1` (stereo not drawn) was > 4 mM (inactive).
The value for `C=C1C2CC[C@H]3[C@]4(C)C[C@H](OC5OC(CO)C(OS(=O)(=O)O)C(OS(=O)(=O)O)C5OC(=O)CC(C)C)C[C@@H](C(=O)O)[C@H]4CC[C@]3(C2)[C@H]1O` (stereo partly drawn) was > 4 mM (inactive).
As for `Cn1c(=O)[nH]c2nc[nH]c2c1=O`, the figure is > 4 mM (inactive); as for `COC(=O)N(c1ccccc1)P1(=S)OCCO1`, > 4 mM (inactive); as for `Cc1nc2cc(NC(=O)Nc3nccs3)ccc2n1C`, > 4 mM (inactive).
Turning to `CCCS(=O)(=O)N1CCN(c2ccccn2)CC1`, the Kd was > 4 mM (inactive).
Take `Cc1c(C(=O)O)cnn1-c1ccccc1`: the Kd was > 4 mM (inactive).
The value for `OCc1ccc2occc2c1` was > 4 mM (inactive); that for `O=C(NCc1ccccc1Br)c1ccco1` was > 4 mM (inactive); that for `NC(=O)C1CCN(c2ccc(Cl)nn2)CC1` was > 4 mM (inactive).
As for `O=C(/C=C/c1ccc(O)c(O)c1)O[C@@H]1C[C@](O)(C(=O)O)C[C@@H](O)[C@H]1O`, the figure is > 4 mM (inactive); as for `NS(=O)(=O)c1ccccc1Cl`, > 4 mM (inactive); as for `NC(=O)CSc1nc2ccccc2c(=O)[nH]1`, > 4 mM (inactive).
On to `Cc1cc(SCCF)n2ncnc2n1`, for which the Kd is > 4 mM (inactive).
The value for `NC(=O)c1cccc(Cl)n1` was > 4 mM (inactive); that for `Cc1nc2ccc(F)cc2cc1C(=O)NCc1ccco1` was > 4 mM (inactive).
